Bridge positions count the residues as written; N and C are the ends. Square brackets hold non-standard residues; d marks the D form. Ends that are not written are not given here. Aha = [N-]=[N+]=NCC[C@H](N)C(=O)O; Pra = C#CC[C@H](N)C(=O)O
Tests used:
[1] = target: T1, glycine receptor binding site of gephyrin (peptide binding site) (Homo sapiens, UniProt Q9NQX3); assay: Affinity of β-bodies to the gephyrin peptide binding site; conditions: compared with original peptide SEQ ID NO: 41
T1 sequence (Q9NQX3 1-736): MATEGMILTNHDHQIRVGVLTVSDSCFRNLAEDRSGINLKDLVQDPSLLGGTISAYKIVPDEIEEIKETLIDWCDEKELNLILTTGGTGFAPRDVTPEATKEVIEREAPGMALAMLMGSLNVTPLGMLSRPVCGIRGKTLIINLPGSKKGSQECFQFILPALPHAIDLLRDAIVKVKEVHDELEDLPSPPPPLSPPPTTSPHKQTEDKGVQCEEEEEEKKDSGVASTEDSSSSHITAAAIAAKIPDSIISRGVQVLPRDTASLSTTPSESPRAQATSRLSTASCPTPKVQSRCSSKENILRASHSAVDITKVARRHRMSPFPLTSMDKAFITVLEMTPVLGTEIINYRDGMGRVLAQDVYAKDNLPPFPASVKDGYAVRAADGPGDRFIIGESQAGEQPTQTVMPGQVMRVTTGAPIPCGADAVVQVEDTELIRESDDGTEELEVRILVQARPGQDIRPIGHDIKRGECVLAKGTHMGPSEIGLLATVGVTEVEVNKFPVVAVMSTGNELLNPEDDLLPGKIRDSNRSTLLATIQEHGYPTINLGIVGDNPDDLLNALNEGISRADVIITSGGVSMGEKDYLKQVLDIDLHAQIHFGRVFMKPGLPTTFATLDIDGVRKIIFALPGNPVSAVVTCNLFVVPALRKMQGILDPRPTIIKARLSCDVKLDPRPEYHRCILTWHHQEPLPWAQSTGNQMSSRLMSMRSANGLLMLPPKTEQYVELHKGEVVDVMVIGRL
Protocol: The following β-body TTVTGTLYPGTLLGFETT (SEQ ID NO: 41) underwent optimization via alanine scanning. The resulting 9 β-bodies were tested for their affinity to the glycine receptor binding site of gephyrin (peptide binding site). The affinity of the original peptide could be improved and optimized β-bodies were found having the following sequences CTVTGTLYPGTLLGFETC (SEQ ID NO: 42) and TTVTGTLYPGTLLGAATT (SEQ ID NO: 43).

[2] = test system: Il1; assay: Binding of β-bodies with the target compound (Table 1), Il1; conditions: Purpose Il1; tested for binding with the target compound
[3] = test system: Interleukin 1; assay: Sandwich binding assay on PEGA beads, IL1 model
From the text: (§1) For sandwich assays β-bodies identified as described in Examples 1 and 2 were synthesized by standard Fmoc-based solid phase peptide synthesis on biocompatible PEGA-beads (e.g. PEGA1900 which has a porosity allowing penetration of proteins up to 70 kDa). PEGA beads are available from Sigma Aldrich.
The intensity of the fluorescence is a measure of the concentration of IL1 and the affinity of the interaction.

[4] = test system: GFP; conditions: GFP 60 nM, both bead types incubated at the same time
Protocol: GFP (60 nM) was incubated with different β-body beads at the same time, a first type of β-body beads specific for GFP (β-body SEQ ID NO: 1;
[…]) and a second type of β-body beads specific for IL1 (β-body SEQ ID NO: 5).

[5] = test system: Il1; assay: Selectivity assay GFP vs. IL1: beads incubated with ROX-IL1; assay type: binding; conditions: ROX-IL1 100 nM, both bead types incubated at the same time
From the text: The same experiment was repeated with IL1.

[6] = target: interleukin 6 (Homo sapiens, UniProt P05231); assay: Sandwich binding assay on PEGA beads, IL6 model
interleukin 6, sequence (P05231 30-212, species assumed): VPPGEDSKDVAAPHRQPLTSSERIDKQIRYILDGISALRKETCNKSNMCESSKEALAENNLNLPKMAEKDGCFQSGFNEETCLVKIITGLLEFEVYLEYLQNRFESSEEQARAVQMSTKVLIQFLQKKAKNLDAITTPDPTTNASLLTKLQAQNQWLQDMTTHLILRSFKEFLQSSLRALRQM
Protocol: as §1
The sandwich binding assay was performed as follows: two beads with ligand E prepared as described above were contained in separate wells and were added to 50 μL MilliQ water in a microtiter well containing 100 nM of the peptide F. […]
The beads were washed twice with PBS to improve signal to noise. The well was imaged with an ICX73 fluorescence microscope (Olympus) using a ROX filter cube.

[7] = test system: POI; assay: Screening of OBOC β-body library with AMC-labelled POI; assay type: binding; conditions: POI 10 nM, 2 h incubation; site of interaction not determined
Protocol: The library of K(TX)4PG(XT)4EG was synthesized on HMBA-PEGA1900 resin by the split—mix method essentially as described in Christensen et al, 2003 and was deprotected with 95% TFA. The POI was dissolved in phosphate buffer at pH 7.5, labeled with aminomethylcoumarin using AMC-(CH2)3—CO—OSu (4 eqv, 30 min) and purified by FPLC. […] The protein was dissolved at 100 nM concentration and the library was incubated for 2 h with this solution at 10 fold dilution (10 nM). The library was inspected under a ICX73 fluorescence microscope using a […]. Beads with strong AMC-fluorescence were collected in separate Eppendorph tubes using a microsyringe. The beads were washed and 5% triethylamine in water was added. After incubation overnight the supernatant was transferred to another eppendorph tube and the bead was washed with 70% acetonitril/water. The combined solutions were concentrated to dryness twice using a speedvacc and the residue dissolved in 50% acetonitrile/water. […] The site of interaction on the POI was not determined.

[8] = target: T2, Gephyrin (Homo sapiens, UniProt Q9NQX3); assay: Binding of β-bodies with the target compound (Table 1), Gephyrin; conditions: Purpose Gephyrin; tested for binding with the target compound
T2 sequence (Q9NQX3 1-736): T1 sequence (Q9NQX3 1-736)

[9] = target: Beads modified with (2); assay: Fluorescent β-bodies incubated with beads modified with (2); assay type: binding; conditions: for Kd: bead-(2) with fluorescent β-body; for Binding of fluorescent β-body to beads modified with (2): FIG. 8
Protocol: (§2) A fluorescent probe was attached to (1), (2) AND (3). The fluorescent β-bodies were then incubated with: • Beads modified with NHAc; or • Beads modified with (1); or • Beads modified with (2).

[10] = test system: Beads modified with (1); assay: Fluorescent β-bodies incubated with beads modified with (1); assay type: binding; conditions: FIG. 8
Protocol: as §2

[11] = ligand 1 beads + 100 nM ligand 2, Interleukin 1 50 nM, 20 min
[12] = ligand 1 beads + 100 nM ligand 2, without IL1 (interaction between the two β-bodies)

## Abu(N3)-TVTGTLYPGTLLGFET-Pra ([Aha]TVTGTLYPGTLLGFET[Pra]; triazole 1-18 (inferred)) [SEQ ID NO: 44]
[1]
  affinity to the glycine receptor binding site of gephyrin: unchanged

## CTVTGTLYPGTLLGFETC (Designed peptide) [SEQ ID NO: 42]
[1]
  affinity to the glycine receptor binding site of gephyrin: improved

## EPraDTYTETYPGRTITWTIAbu(N3)DG (E[Pra]DTYTETYPGRTITWTI[Aha]DG; triazole 2-19 (inferred)) [SEQ ID NO: 9]
[2]
  Binding: High

## ETDTYTETYPGYTSTWTITD (Designed peptide) [SEQ ID NO: 5]
[3]; [11]
  ROX fluorescence accumulation in the beads: positive signal
[3]; ligand 1 beads + 100 nM ligand 2, Interleukin 1 50 nM, 20 min, listed as A
  ROX fluorescence accumulation in the beads: accumulation of significant ROX fluorescence
[3]; [12]
  ROX fluorescence accumulation in the beads: no signal
[3]; ligand 1 beads + 100 nM ligand 2, without IL1 (interaction between the two β-bodies), listed as A
  ROX fluorescence accumulation in the beads: No fluorescence accumulation over background
[4]
  Binding of β-body beads to GFP: only β-body beads specific for GFP underwent binding
[5]
  Binding of β-body beads to IL1: underwent binding

## HTWTDTLTRPGYTVTHTLTL (Designed peptide) [SEQ ID NO: 17]
[6]; ligand 5 bead + 100 nM ligand 6, interleukin 6 20 nM, 20 min, listed as E
  ROX fluorescence accumulation in the bead: accumulation of significant ROX fluorescence
[6]; ligand 5 bead + 100 nM ligand 6, interleukin 6 20 nM, 20 min, listed as ligand 5
  ROX fluorescence accumulation in the bead: positive signal
[6]; ligand 5 bead + 100 nM ligand 6, without IL6 (interaction between the two β-bodies), listed as E
  ROX fluorescence accumulation in the bead: No fluorescence accumulation over background
[6]; ligand 5 bead + 100 nM ligand 6, without IL6 (interaction between the two β-bodies), listed as ligand 5
  ROX fluorescence accumulation in the bead: no signal

## KTGTQNLTGPGRTHTQTATEG (Designed peptide; PEPTIDE (1)..(21) GFP) [SEQ ID NO: 3]
[7]
  Binding of library beads to AMC-labelled POI (AMC-fluorescence): strong binding

## KTQTYNGTGPGRTGTVTYTEG (Designed peptide) [SEQ ID NO: 55]
[7]
  Binding of library beads to AMC-labelled POI (AMC-fluorescence): strong binding

## KTYTYNYTGPGRTSTATLTEG (Designed peptide) [SEQ ID NO: 56]
[7]
  Binding of library beads to AMC-labelled POI (AMC-fluorescence): strong binding

## Pra-ITKTARYTMPGKTLTKTGTL-Abu(N3)-G ([Pra]ITKTARYTMPGKTLTKTGTL[Aha]G; triazole 1-22 (inferred)) [SEQ ID NO: 46]
[8]
  Binding: Medium

## Pra-TVTGTLYPGTLLGFET-Abu(N3) ([Pra]TVTGTLYPGTLLGFET[Aha]; triazole 1-18 (inferred)) [SEQ ID NO: 34]
[1]
  affinity to the glycine receptor binding site of gephyrin: unchanged

## Pra-YTYTDTTPGVTRTLTWG-Abu(N3)-OH ([Pra]YTYTDTTPGVTRTLTWG[Aha]-OH; triazole 1-19 (inferred)) [SEQ ID NO: 38]
[8]
  Binding: Medium

## PraTWTLTHTPGTMEITET-Abu(N3)-OH ([Pra]TWTLTHTPGTMEITET[Aha]-OH; triazole 1-18 (inferred)) [SEQ ID NO: 39]
[8]
  Binding: Medium

## TFTFTFPGLTRTHT [SEQ ID NO: 59]
[9]
  Kd: 5000 nM

## TITKTARYTMPGKTLTKTGTLTG (Designed peptide) [SEQ ID NO: 45]
[8]
  Binding: Medium

## TKTDRVTEPGRTMTFTGT (Designed peptide) [SEQ ID NO: 7]
[3]; [11]
  ROX fluorescence accumulation in the beads: positive signal
[3]; ligand 1 beads + 100 nM ligand 2, Interleukin 1 50 nM, 20 min, listed as B
  ROX fluorescence accumulation in the beads: accumulation of significant ROX fluorescence
[3]; [12]
  ROX fluorescence accumulation in the beads: no signal
[3]; ligand 1 beads + 100 nM ligand 2, without IL1 (interaction between the two β-bodies), listed as B
  ROX fluorescence accumulation in the beads: No fluorescence accumulation over background

## TMTDTDTYPGFTDTLTHA (Designed peptide) [SEQ ID NO: 16]
[6]; ligand 5 bead + 100 nM ligand 6, interleukin 6 20 nM, 20 min
  ROX fluorescence accumulation in the bead: positive signal
[6]; ligand 5 bead + 100 nM ligand 6, interleukin 6 20 nM, 20 min, listed as F
  ROX fluorescence accumulation in the bead: accumulation of significant ROX fluorescence
[6]; ligand 5 bead + 100 nM ligand 6, without IL6 (interaction between the two β-bodies)
  ROX fluorescence accumulation in the bead: no signal
[6]; ligand 5 bead + 100 nM ligand 6, without IL6 (interaction between the two β-bodies), listed as F
  ROX fluorescence accumulation in the bead: No fluorescence accumulation over background

## TTVTGTLYPGTLLGAATT (Designed peptide) [SEQ ID NO: 43]
[1]
  affinity to the glycine receptor binding site of gephyrin: improved

## TTYTYPGDTFTI (Designed peptide) [SEQ ID NO: 58]
[9]
  Binding of fluorescent β-body to beads modified with (2): high affinity
[10]
  Binding of fluorescent β-body to beads modified with (1): best bind

## TWTETYTWTEPGDTQTLTITNT (Designed peptide) [SEQ ID NO: 11]
[2]
  Binding: High

## TYTYTYPGLTRTHT [SEQ ID NO: 57]
[9]
  Binding of fluorescent β-body to beads modified with (2): best bind
  Kd: 700 nM
[10]
  Binding of fluorescent β-body to beads modified with (1): high affinity
